System: carrageenin-induced inflammatory nociception in the hind paw
Test: Inflammatory nociception induced by carrageenin (von Frey filament)
Assay type: in vivo
Conditions: mice, carrageenin 300 μg per paw intraplantar; alpha-humulene 50 mg/kg orally or paracetamol 600 mg/kg orally, 1 h before; evaluated after 3, 4 and 6 hours
Protocol: The evaluation methodology used in this test is described by Vaz et al. in J. Pharmacol. Exp. Ther. 278:304-312, 1996. Male mice (25-35 g) were systemically (orally) treated with alpha-humulene, 50 mg/kg, administered 1 hour before the experiment. Animals treated with 0.9% saline solution (0.1 ml/10 g) were used as the control. Another group of animals was treated with paracetamol (600 mg/kg, orally, administered 1 h before the treatment), that was used as positive control. For the induction of inflammatory pain, the animals received an intraplantar injection of 0.05 ml of carrageenin (300 μg per paw) at the plantar surface of the right hind paw. […] The nociception was evaluated with a Von Frey filament (0.4 g) after 3, 4 and 6 hours. […] The filament was applied to the right hind paw, complying with the criteria of (1) the application was perpendicular to the plantar surface, with enough pressure to cause the filament to bend, thus obtaining total pressure; (2) the animals were evaluated when the four paws were touching the screen; (3) the paw withdrawal response was considered when the animal removed the paw entirely from the support screen; (4) each animal was stimulated 10 consecutive times, each stimulation lasting 1 second; (5) each paw withdrawal event was considered as 10% of the response, with 10 withdrawal events corresponding to 100% response. […]

CC(=O)Nc1ccc(O)cc1 [paracetamol, reference compound]
inflammatory nociception (paw withdrawal response to 0.4 g von Frey filament): reduced the inflammatory nociception
